Here are results for 18 molecules from patent US20210246122A1, “Triazine Compounds and Uses Thereof” (Aduro Biotech, Inc., priority 2018, published 2021).

pIC50: −log10 of the molar value.

One experiment concerns cGAS/STING pathway. Briefly: THP1 cell-based cGAS/STING pathway activity assay (luciferase reporter linked to IRF-3 activation). To be noted: Homo sapiens, THP-1; THP1 cells, IRF-3 linked luciferase reporter. As to the method:
A cellular assay can be used to assess the compounds of the invention for their ability to inhibit the cGAS/STING pathway. Cells that express a luciferase-based reporter that is linked to IRF-3 activation are used to determine response as a function of compound concentration. Such an assay is described in Vincent et al., Nature Communications 2017, 8(1):750, doi: 10.1038/s41467-017-00833-9. Compounds of the invention were assessed using similar assay methods in a THP1 cell assay to generate IC50 values as provided in the following Table 8. In this table, activity level “A” indicates an IC50 value less than 20 μM, “B” indicates an IC50 value between 20 and 100 μM, and “C” indicates an IC50 value above the upper limit of the assay (100 μM), or where an IC50 value could not be generated from the data.
(In a reporter assay the amount or activity of a reporter protein is the signal.)
What is called pIC50 is −log10 of the IC50, conventionally taken in molar units. Read a high pIC50 as a small IC50. On to `COC(=O)[C@H](Cc1ccccc1)Nc1nc(NCc2nc3cc(F)ccc3[nH]2)nc(Nc2cccc(CN3CCN(C(=O)c4nccnc4O)CC3)c2)n1` [TA1065, methyl (4-(((5-fluoro-1H-benzo[d]imidazol-2-yl)methyl)amino)-6-((3-((4-(3-hydroxypyrazine-2-carbonyl)piperazin-1-yl)methyl)phenyl)amino)-1,3,5-triazin-2-yl)-L-phenylalaninate], for which the pIC50 is 4.00 to 4.70. The same measure, in the same setting: the result for `COC(=O)[C@H](Cc1ccc(C#N)cc1)Nc1nc(NCc2nc3cc(Cl)ccc3[nH]2)nc(Nc2cccc(CN3CCN(C(=O)c4nccnc4O)CC3)c2)n1` [TA1059, methyl (S)-2-((4-(((5-chloro-1H-benzo[d]imidazol-2-yl)methyl)amino)-6-((3-((4-(3-hydroxypyrazine-2-carbonyl)piperazin-1-yl)methyl)phenyl)amino)-1,3,5-triazin-2-yl)amino)-3-(4-cyanophenyl)propanoate] reads under 4.00.

The target of the next experiment is T1, Human cGAS amino acids 155-522 (Homo sapiens, UniProt Q8N884).
T1 construct: hexahistidine tag (N, cleaved yes); made in house; host or cells: E. coli BL21 DE3 Rosetta 2
T1 sequence (Q8N884 157-522): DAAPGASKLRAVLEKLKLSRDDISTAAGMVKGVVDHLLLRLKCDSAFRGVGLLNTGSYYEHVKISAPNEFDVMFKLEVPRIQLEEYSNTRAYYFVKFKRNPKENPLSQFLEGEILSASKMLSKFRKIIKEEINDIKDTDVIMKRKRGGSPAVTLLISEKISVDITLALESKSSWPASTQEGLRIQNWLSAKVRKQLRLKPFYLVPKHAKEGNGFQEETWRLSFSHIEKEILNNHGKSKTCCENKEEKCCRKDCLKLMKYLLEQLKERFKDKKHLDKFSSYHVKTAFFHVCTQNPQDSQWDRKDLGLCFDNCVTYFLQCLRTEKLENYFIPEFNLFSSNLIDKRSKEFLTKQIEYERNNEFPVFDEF
Briefly: cGAS activity assay (DNA-activated cGAS, remaining ATP measured by Kinase-Glo Max luciferase assay). It is filed as biochemical. To be noted: 300 nM purified cGAS, 1 μM dsDNA, 250 μM ATP, 100 μM GTP, 37° C. for 1.25 hours. The method, then: IC50 values were determined as follows:
Human cGAS sequence encoding amino acids 155-522 was cloned into a pET (EMD Millipore) based expression plasmid. The resulting construct contained a tandem N-terminal hexahistidine tag, maltose binding protein fusion followed by a tobacco etch virus protease cleavable linker preceding cGAS amino acids 155-522.
Construct sequence: Amino acids 155-522, Human cGAS
Protein was expressed and purified from E. coli BL21 DE3 Rosetta 2 (EMD Millipore) cells using standard techniques. Cells were grown in 2× yeast extract tryptone medium and expression was initiated via the addition of isopropyl β-D-1-thiogalactopyranoside. Expression proceeded overnight at 18° C. Cells were harvested by centrifugation and subsequently lysed via sonication. Insoluble fraction was removed by centrifugation. Maltose binding protein (MBP) fusion proteins were purified on a dextrin sepharose column (GE Healthcare) and the MBP tag was removed using tobacco etch virus protease overnight during dialysis. Protein was further purified on a heparin column (GE Healthcare) and eluted using a NaCl gradient. Column fraction were pooled and further purified on a Superdex 75 gel filtration column (GE Healthcare). Protein was quantified using 280 nm absorbance. Protein was then flash frozen in liquid nitrogen and stored at −80° C. until use.
Potential antagonists were diluted in 100% dimethyl sulfoxide and added to the reaction. Final dimethyl sulfoxide concentration was 5%. The compounds were tested from 1 μM with either 3- or 4-fold serial dilutions down to 0.000051 or 0.000004 μM respectively.
Two complementary DNA oligos (IDT DNA) were annealed by slow cooling from 95° C. The resulting double stranded DNA was used to activate cGAS.
Reactions were performed at 37° C. for 1.25 hours. Reaction buffer: 20 mM Tris HCl pH 9, 100 mM NaCl, 5 mM MgCl2, 0.1 mg/ml bovine gamma globulin, 250 μM adenosine triphosphate, 100 μM guanosine triphosphate, 0.5 mM Tris(2-carboxyethyl)phosphine hydrochloride, 1 μM double stranded DNA and 300 nM purified cGAS protein.
Reactions were stopped and ATP levels in the reaction were measured using a luciferase based assay. Promega Kinase-Glo Max Assay. Luminescence was measured on a plate reader (Molecular Devices). Values were normalized to control wells lacking compound.
The molecule `COC(=O)[C@H](Cc1ccccc1)Nc1nc(NCc2nc3cc(F)ccc3[nH]2)nc(Nc2cccc(CN3CCN(C(=O)c4nccnc4O)CC3)c2)n1` [TA1065, methyl (4-(((5-fluoro-1H-benzo[d]imidazol-2-yl)methyl)amino)-6-((3-((4-(3-hydroxypyrazine-2-carbonyl)piperazin-1-yl)methyl)phenyl)amino)-1,3,5-triazin-2-yl)-L-phenylalaninate] showed a pIC50 of over 4.70. Still for that read-out and setting: the result for `COC(=O)[C@H](Cc1ccc(C#N)cc1)Nc1nc(NCc2nc3cc(Cl)ccc3[nH]2)nc(Nc2cccc(CN3CCN(C(=O)c4nccnc4O)CC3)c2)n1` [TA1059, methyl (S)-2-((4-(((5-chloro-1H-benzo[d]imidazol-2-yl)methyl)amino)-6-((3-((4-(3-hydroxypyrazine-2-carbonyl)piperazin-1-yl)methyl)phenyl)amino)-1,3,5-triazin-2-yl)amino)-3-(4-cyanophenyl)propanoate] reads over 4.70. The same measure, in the same setting: the figure for `COC(=O)[C@H](Cc1ccc(C#N)cc1)Nc1nc(Nc2cccc(CN3CCNCC3)c2)nc(OC)n1` [TA1028, methyl (S)-3-(4-cyanophenyl)-2-((4-methoxy-6-((3-(piperazin-1-ylmethyl)phenyl)amino)-1,3,5-triazin-2-yl)amino)propanoate] is under 3.60; for `COC(=O)[C@H](Cc1ccc(C#N)cc1)Nc1nc(Nc2cccc(CN3CCN(C(=O)c4csnn4)CC3)c2)nc(N(C)CCc2nc3ccc(OC)cc3[nH]2)n1` [TA1055, methyl (S)-2-((4-((3-((4-(1,2,3-thiadiazole-4-carbonyl)piperazin-1-yl)methyl)phenyl)amino)-6-((2-(6-methoxy-1H-benzo[d]imidazol-2-yl)ethyl)(methyl)amino)-1,3,5-triazin-2-yl)amino)-3-(4-cyanophenyl)propanoate] it is under 3.60. Same read-out and setting: the figure for `COC(=O)[C@H](Cc1ccc(C#N)cc1)Nc1nc(NCc2nc3cc(F)ccc3[nH]2)nc(Nc2cccc(CN3CCN(C(=O)c4nccnc4OC)CC3)c2)n1` [TA1078, methyl (S)-3-(4-cyanophenyl)-2-((4-(((5-fluoro-1H-benzo[d]imidazol-2-yl)methyl)amino)-6-((3-((4-(3-methoxypyrazine-2-carbonyl)piperazin-1-yl)methyl)phenyl)amino)-1,3,5-triazin-2-yl)amino)propanoate] is under 3.60. For `COC(=O)[C@H](Cc1ccc(C#N)cc1)Nc1ncnc(Nc2cccc(CN3CCN(C(=O)c4nccnc4O)CC3)c2)n1` [TA1026, methyl (S)-3-(4-cyanophenyl)-2-((4-((3-((4-(3-hydroxypyrazine-2-carbonyl)piperazin-1-yl)methyl)phenyl)amino)-1,3,5-triazin-2-yl)amino)propanoate], the pIC50 is under 3.60. On the same count and under the same terms, the figure for `COC(=O)[C@H](Cc1ccc(C#N)cc1)Nc1nc(NCc2nccn2C)nc(Nc2cccc(CN3CCNCC3)c2)n1` [TA1032, methyl (S)-3-(4-cyanophenyl)-2-((4-(((1-methyl-1H-imidazol-2-yl)methyl)amino)-6-((3-(piperazin-1-ylmethyl)phenyl)amino)-1,3,5-triazin-2-yl)amino)propanoate] is under 3.60; for `CN(C)C(=O)[C@H](Cc1ccc(C#N)cc1)Nc1ncnc(Nc2cccc(CN3CCN(C(=O)OC(C)(C)C)CC3)c2)n1` [TA1010, tert-butyl (S)-4-(3-((4-((3-(4-cyanophenyl)-1-(dimethylamino)-1-oxopropan-2-yl)amino)-1,3,5-triazin-2-yl)amino)benzyl)piperazine-1-carboxylate] it is under 3.60; for `COC(=O)[C@H](Cc1ccc(C#N)cc1)Nc1nc(NCc2nc3cc(Cl)ccc3[nH]2)nc(Nc2cccc(CN3CCN(C=O)CC3)c2)n1` [TA1062, methyl (S)-2-((4-(((5-chloro-1H-benzo[d]imidazol-2-yl)methyl)amino)-6-((3-((4-formylpiperazin-1-yl)methyl)phenyl)amino)-1,3,5-triazin-2-yl)amino)-3-(4-cyanophenyl)propanoate] it is 3.60 to 4.70.

`COC(=O)[C@H](Cc1ccc(C#N)cc1)Nc1nc(Cl)nc(Nc2cccc(CN3CCN(C(=O)OC(C)(C)C)CC3)c2)n1` [TA1002, tert-butyl (S)-4-(3-((4-chloro-6-((3-(4-cyanophenyl)-1-methoxy-1-oxopropan-2-yl)amino)-1,3,5-triazin-2-yl)amino)benzyl)piperazine-1-carboxylate]: the pIC50 was under 3.60. Same read-out and setting: the figure for `CNc1nc(Nc2cccc(CN3CCN(C(=O)c4nccnc4O)CC3)c2)nc(N[C@@H](Cc2ccc(C#N)cc2)C(=O)OC)n1` [TA1035, methyl (S)-3-(4-cyanophenyl)-2-((4-((3-((4-(3-hydroxypyrazine-2-carbonyl)piperazin-1-yl)methyl)phenyl)amino)-6-(methylamino)-1,3,5-triazin-2-yl)amino)propanoate] is under 3.60; for `Cc1cc2nc(CN(C)c3nc(Nc4cccc(CN5CCN(C(=O)c6cc7[nH]cnc7cc6C)CC5)c4)nc(N[C@@H](Cc4ccc(C#N)cc4)C(=O)N(C)C)n3)[nH]c2cc1C` [TA1015, (S)-3-(4-cyanophenyl)-2-((4-(((5,6-dimethyl-1H-benzo[d]imidazol-2-yl)methyl)(methyl)amino)-6-((3-((4-(5-methyl-1H-benzo[d]imidazole-6-carbonyl)piperazin-1-yl)methyl)phenyl)amino)-1,3,5-triazin-2-yl)amino)-N,N-dimethylpropanamide] it is under 3.60.

Consider `COC(=O)[C@H](Cc1ccc(C#N)cc1)Nc1nc(Nc2cccc(CN3CCN(C(=O)c4cnccn4)CC3)c2)nc(N(C)CCc2nc3ccc(OC)cc3[nH]2)n1` [TA1054, methyl (S)-3-(4-cyanophenyl)-2-((4-((2-(6-methoxy-1H-benzo[d]imidazol-2-yl)ethyl)(methyl)amino)-6-((3-((4-(pyrazine-2-carbonyl)piperazin-1-yl)methyl)phenyl)amino)-1,3,5-triazin-2-yl)amino)propanoate], for which the pIC50 was under 3.60.

With `CN(C)C(=O)[C@H](Cc1ccc(C#N)cc1)Nc1nc(NCc2nc3cc(F)ccc3[nH]2)nc(Nc2cccc(CN3CCN(C=O)CC3)c2)n1` [TA1016, (S)-3-(4-cyanophenyl)-2-((4-(((5-fluoro-1H-benzo[d]imidazol-2-yl)methyl)amino)-6-((3-((4-formylpiperazin-1-yl)methyl)phenyl)amino)-1,3,5-triazin-2-yl)amino)-N,N-dimethylpropanamide], the pIC50 is 3.60 to 4.70. Still for that read-out and setting: the result for `COCCOCCNC(=O)[C@H](Cc1ccc(C#N)cc1)Nc1nc(NCc2nc3cc(F)ccc3[nH]2)nc(Nc2cccc(CN3CCNCC3)c2)n1` [TA1023, (S)-3-(4-cyanophenyl)-2-((4-(((5-fluoro-1H-benzo[d]imidazol-2-yl)methyl)amino)-6-((3-(piperazin-1-ylmethyl)phenyl)amino)-1,3,5-triazin-2-yl)amino)-N-(2-(2-methoxyethoxy)ethyl)propanamide] reads under 3.60. Still for that read-out and setting: the figure for `COC(=O)[C@H](Cc1ccc(C#N)cc1)Nc1nc(Nc2cccc(CN3CCN(C(C)=O)CC3)c2)nc(N(Cc2nc3cc(F)ccc3[nH]2)C(C)=O)n1` [TA1076, methyl (S)-2-((4-((3-((4-acetylpiperazin-1-yl)methyl)phenyl)amino)-6-(N-((5-fluoro-1H-benzo[d]imidazol-2-yl)methyl)acetamido)-1,3,5-triazin-2-yl)amino)-3-(4-cyanophenyl)propanoate] is under 3.60; for `COC(=O)[C@H](Cc1ccccc1)Nc1nc(NCc2nc3cc(F)ccc3[nH]2)nc(Nc2cccc(CN3CCNCC3)c2)n1` [TA1064, methyl (4-(((5-fluoro-1H-benzo[d]imidazol-2-yl)methyl)amino)-6-((3-(piperazin-1-ylmethyl)phenyl)amino)-1,3,5-triazin-2-yl)phenylalaninate] it is under 3.60; for `COC(=O)[C@H](Cc1ccc(C#N)cc1)Nc1nc(Nc2cccc(CN3CCN(C=O)CC3)c2)nc(OC)n1` [TA1077, methyl (S)-3-(4-cyanophenyl)-2-((4-((3-((4-formylpiperazin-1-yl)methyl)phenyl)amino)-6-methoxy-1,3,5-triazin-2-yl)amino)propanoate] it is under 3.60.
